What was measured:
[1] = tested on: HeLa cells; assay: HeLa cell viability assay (MTS): SO1861 + dianthin-EGF with PAMAM, PAMAM-conjugates, G4-dendron or chloroquine; format: cell-based, human; settings: positive control
From the text: Whether or not a first proteinaceous molecule comprising saponins, either or not further comprising one or more (cleavable) linkers and/or optionally a scaffold, is able to disturb the acidic environment and […] the endosomal escape function of the at least one glycoside (saponin) can be easily determined with an assay as described in Example 3 and as known in the art. The inhibition is described as “fold amount increases of glycoside necessary to induced 50% cell killing”. […] The fold increase is to be measured in assay, essentially as described in Example 4, wherein Chloroquine, as a positive control, induces a 2-fold increase in glycoside amount, preferably saponin amount wherein the saponin is any one or more of the saponins of the invention (see Table A1, Scheme I, previous embodiments) to observe 50% cell killing.
HeLa cells were seeded in DMEM (PAN-Biotech GmbH) supplemented with 10% fetal bovine serum (PAN-Biotech GmbH) and 1% penicillin/streptomycin (PAN-Biotech GmbH), in a 96 well plate at 5,000 c/w in 100 μL/well and incubated overnight at 37° C. and 5% CO2. The next day 20× concentrated stocks of the PAMAM, PAMAM-conjugates, G4-dendron (prepared in Example 3) or chloroquine (Sigma Aldrich) samples were prepared in DMEM. […]

[2] = tested on: SK-BR-3, JIMT-1, MDA-MB-468, A431, CaSki, HeLa, A2058; assay: control treatments, relative cell viability on various cancer cell lines (FIG. 12); format: cell-based, human; settings: wide range of concentrations toxin tested, up to 100.000 pM

Molecule	fold increase in glycoside (saponin) amount to observe 50% cell killing [1]	influence on cell viability [2]
CCN(CC)CCCC(C)Nc1ccnc2cc(Cl)ccc12 (centres unmarked) [Chloroquine]	2 fold	–
saporin	–	do not or hardly have any influence on cell viability
